Reference: US20230053540A1, “TREATMENT OF LIVER INJURY” (Massachusetts Institute of Technology, priority 2019, published 2023)

System: hepatocytes
Experiment: Seq-Well scRNA-Seq of hepatocytes after APAP overdose (signature scores, DEG vs untreated)
Format: in vivo, mouse
Details: A6 vs UT

CC(=O)Nc1ccc(O)cc1 [APAP, acetaminophen]
Ash11 A6logFC: 0.2657
Asl avg_logFC: 0.5586
Atf4 A6logFC: 0.3411
Atf6 A6logFC: 0.3778
Atox1 avg_logFC: −0.4462
Atox1 pct.1: 0.382
Atp1a1 avg_logFC: 0.4191
Atp1a1 pct.1: 0.53
Atp1b1 A6logFC: 0.3702
Atp2a2 avg_logFC: 0.495
Atp2b1 A6logFC: 0.3321
Atp5e avg_logFC: −0.6502
Atp5f1 avg_logFC: −0.5171
Atp5f1 pct.1: 0.69
Atp5j2 avg_logFC: −0.5131
Atp5j2 pct.1: 0.606
Atp5k avg_logFC: −0.4773
Atp5k pct.1: 0.368
Atp13a3 avg_logFC: 0.3945
Atp13a3 pct.1: 0.532
Atp5h avg_logFC: −0.6398
B2m avg_logFC: −0.3304
B2m pct.1: 0.871
B4galt5 avg_logFC: 0.4763
BC005537 A6logFC: 0.3543
Bach1 avg_logFC: 0.8323
Bbox1 avg_logFC: −0.4082
Bbox1 pct.1: 0.308
Bc1af1 A6logFC: 0.2685
Bcl2l1 avg_logFC: 0.7751
Bcl3 avg_logFC: 0.289
Bcl3 pct.1: 0.277
Bclaf1 avg_logFC: 0.2685
Bclaf1 pct.1: 0.372
Bdh1 avg_logFC: −0.2936
Bdh1 pct.1: 0.315
Bdhl A6logFC: −0.2936
Bet1 A6logFC: −0.2966
Birc6 A6logFC: 0.3444
Birc6 avg_logFC: 0.3444
Birc6 pct.1: 0.446
Blvrb avg_logFC: −0.5451
Blvrb pct.1: 0.286
Bphl avg_logFC: −0.4075
Bphl pct.1: 0.339
Brd2 A6logFC: 0.5715
Brd2 avg_logFC: 0.5715
Brd2 pct.1: 0.542
Bst2 A6logFC: −0.3156
Btaf1 A6logFC: 0.2755
Btaf1 avg_logFC: 0.2755
Btaf1 pct.1: 0.284
Btg1 avg_logFC: 0.458
Btg1 pct.1: 0.356
Btg2 avg_logFC: 0.8321
Bzw1 avg_logFC: 0.2948
Bzw1 pct.1: 0.475
C1qa avg_logFC: 0.5148
C1qa pct.1: 0.174
C1qc avg_logFC: 0.5861
C1qc pct.1: 0.172
C8g avg_logFC: −0.6545
C1d A6logFC: −0.2553
C1d avg_logFC: −0.2553
C1d pct.1: 0.208
C230081A13Rik avg_logFC: 0.427
Cald1 avg_logFC: 0.3737
Cald1 pct.1: 0.766
Cap1 A6logFC: 0.3251
Cap1 avg_logFC: 0.3251
Cap1 pct.1: 0.356
Car3 avg_logFC: −1.036
Car5a A6logFC: −0.3088
Cbr1 avg_logFC: 0.2847
Cbr1 pct.1: 0.494
Ccbl1 avg_logFC: −0.3649
Ccbl1 pct.1: 0.205
Ccdc50 A6logFC: 0.2858
Ccdc50 avg_logFC: 0.2858
Ccdc50 pct.1: 0.401
Ccl6 avg_logFC: 0.7891
Ccnl1 A6logFC: 0.2566
Ccnl1 avg_logFC: 0.2566
Ccnl1 pct.1: 0.351
Ccs avg_logFC: −0.4267
Ccs pct.1: 0.42
Cd5l avg_logFC: 0.6935
Cd14 avg_logFC: 0.3621
Cd44 avg_logFC: 0.3037
Cd44 pct.1: 0.115
Cd53 avg_logFC: 0.2656
Cd53 pct.1: 0.103
Cd74 avg_logFC: 0.4539
Cd74 pct.1: 0.155
Cd97 avg_logFC: 0.3458
Cd97 pct.1: 0.115
Cd163 avg_logFC: 0.4408
Cd163 pct.1: 0.146
Cd302 avg_logFC: −0.5499
Cdh1 A6logFC: 0.2697
Cdh1 avg_logFC: 0.2697
Cdh1 pct.1: 0.327
Cdkn1a avg_logFC: 1.215
Cebpa avg_logFC: −0.3916
Cebpa pct.1: 0.442
Cela1 A6logFC: −0.2723
Cep85 A6logFC: 0.2839
Cep85 avg_logFC: 0.2839
Cep85 pct.1: 0.313
Cers6 avg_logFC: 0.5328
Ces3a avg_logFC: −0.5253
Ces3b avg_logFC: −0.3664
Ces3b pct.1: 0.57
Cfhr1 A6logFC: −0.3253
Cfp avg_logFC: 0.3562
Cfp pct.1: 0.143
Chac2 avg_logFC: −0.2865
Chac2 pct.1: 0.057
Chchd1 avg_logFC: −0.4398
Chchd1 pct.1: 0.21
Chchd2 avg_logFC: −0.5525
Chchd10 avg_logFC: −0.4019
Chchd10 pct.1: 0.802
Chd1 avg_logFC: 0.3788
Chd1 pct.1: 0.377
Chic2 avg_logFC: 0.4198
Chic2 pct.1: 0.37
Chka avg_logFC: 1.375
Chmp4b A6logFC: 0.3002
Chuk A6logFC: 0.3724
Cidec avg_logFC: 0.2994
Cldn2 A6logFC: −0.2511
Cldn14 avg_logFC: 0.3645
Cldn14 pct.1: 0.32
Clec4f avg_logFC: 1.108
Clec4d avg_logFC: 0.2636
Clec4d pct.1: 0.107
Clic4 A6logFC: 0.2998
Clic4 avg_logFC: 0.2998
Clic4 pct.1: 0.368
Clqb avg_logFC: 0.6817
Cltc avg_logFC: 0.785
Cmbl avg_logFC: −0.4427
Cmbl pct.1: 0.415
Cml1 avg_logFC: −0.6142
Coa6 avg_logFC: −0.4114
Coa6 pct.1: 0.15
Coasy A6logFC: −0.2534
Coasy avg_logFC: −0.2534
Coasy pct.1: 0.327
Commd3 A6logFC: −0.2656
Commd3 avg_logFC: −0.2656
Commd3 pct.1: 0.274
Commd6 avg_logFC: −0.3645
Commd6 pct.1: 0.172
Cox4i1 avg_logFC: −0.516
Cox5b avg_logFC: −0.4988
Cox5b pct.1: 0.425
Cox6a1 avg_logFC: −0.4872
Cox6a1 pct.1: 0.675
Cox6c avg_logFC: −0.8443
Cox7a2 avg_logFC: −0.6503
Cox7b avg_logFC: −0.6422
Cp avg_logFC: 0.2541
Cp pct.1: 0.89
Creb3l2 avg_logFC: 0.4272
Crp avg_logFC: −0.5069
Crp pct.1: 0.477
Csad avg_logFC: −0.5598
Csad pct.1: 0.473
Csrp3 A6logFC: −0.294
Ctnnd1 A6logFC: 0.2518
Ctnnd1 avg_logFC: 0.2518
Ctnnd1 pct.1: 0.358
Ctsb A6logFC: 0.5213
Ctsb avg_logFC: 0.5213
Ctsb pct.1: 0.804
Ctsc A6logFC: 0.361
Ctsl avg_logFC: 0.5301
Ctss avg_logFC: 0.7642
Cu11 A6logFC: 0.2592
Cu13 A6logFC: 0.2788
Cul1 avg_logFC: 0.2592
Cul1 pct.1: 0.425
Cul3 avg_logFC: 0.2788
Cul3 pct.1: 0.415
Cxadr avg_logFC: 0.6985
Cxcl12 avg_logFC: −0.3058
Cxcl12 pct.1: 0.251
Cyb5 avg_logFC: −0.7102
Cybb A6logFC: 0.3778
Cyp4a10 avg_logFC: 0.4566
Cyp4a10 pct.1: 0.687
Cyp4a14 avg_logFC: 1.122
Cyp4f15 A6logFC: −0.2998
D10Wsu102e avg_logFC: 0.5878
Dbi avg_logFC: −0.7164
Dcaf11 avg_logFC: −0.2817
Dcaf11 pct.1: 0.446
Dcxr avg_logFC: −0.4409
Dcxr pct.1: 0.37
Ddah1 A6logFC: −0.312
